We go through five compounds from patent EP0266896A1, “7-( (Meta-substituted) phenylglycine) 1-carba-1-dethiacephalosporins” (priority 1986, dated 1988).

Molecules are shown by their SMILES. Counter-ions that a name gives are not always drawn. Like-named read-outs stand apart in the source and are kept apart here.

One data set deals with Salmonella typhi 1335. Kind of data set: MIC by standard agar dilution test. It counts as cell-based. From the text: (§1) The antibiotic activity of selected compounds of Formula I and, for comparison, a compound of related structure, is illustrated by the following in vitro test data. In Table I, the minimum inhibitory concentrations (MIC) for the compounds against a wide range of gram-positive and gram-negative bacteria are presented. The MIC values were obtained by the standard agar dilution test method. The excellent in vitro activity of the claimed compounds is especially surprising in light of their high solution stability. High solution stability of a β-lactam compound was until now thought to indicate low acylating ability of the β-lactam, and thus low antibacterial activity for the compound.
A general note: Agar dilution tests growth on a series of plates holding different concentrations.

The subject of the next data set is Salmonella typhi X514. Kind of data set: MIC by standard agar dilution test. Type of data set: cell-based.
Description: as §1

The next data set relates to Shigella sonnei N9. Kind of data set: MIC by standard agar dilution test. It counts as cell-based.
Description: as §1

The test system of data set [1] is Staphylococcus aureus S13E. Kind of data set: MIC by standard agar dilution test. As to conditions: β-lactamase producer, penicillin G resistant. Type of data set: cell-based.
Description: as §1

The conditions of data set [2]: rat, in vivo, iv, 20 mg/kg.
Description: (§2) The tests were performed by methods well-recognized in the art.
(§3) Specifically, the male Sprague-Dawley rats were administered a 20 mg/kg dose intravenously. The plasma levels of the administered compound were monitored by bioassay with an E. coli strain.
Data set [3] is described as follows: Intravenous pharmacokinetics in the rat, plasma levels monitored by bioassay with an E. coli strain.
Description: as §2, §3
The next data set has as its system Escherichia coli TEM. Kind of data set: MIC by standard agar dilution test. It counts as cell-based. The conditions noted are these: β-lactamase producer.
Description: as §1

For data set [4], the system named is Hemophilus influenzae C.L. Kind of data set: MIC by standard agar dilution test. Type of data set: cell-based.
Description: as §1

In data set [5] the test system is Staphylococcus aureus V41. Kind of data set: MIC by standard agar dilution test. The conditions noted are these: Staphylococcus aureus V41, penicillin G resistant. It counts as cell-based.
Description: as §1

For data set [6], the system named is Staphylococcus epidermidis EPI1. Kind of data set: MIC by standard agar dilution test. It counts as cell-based. The conditions noted are these: Staphylococcus epidermidis EPI1, methicillin resistant.
Description: as §1

Data set [7] relates to Staphylococcus epidermidis EPI2. Kind of data set: MIC by standard agar dilution test. Type of data set: cell-based. The conditions noted are these: Staphylococcus epidermidis EPI2, methicillin resistant.
Description: as §1

Data set [8] relates to Streptococcus pneumoniae Park I. Kind of data set: MIC by standard agar dilution test. Type of data set: cell-based.
Description: as §1

Consider `CCS(=O)(=O)Nc1cccc([C@@H](N)C(=O)N[C@@H]2C(=O)N3C(C(=O)O)=C(Cl)CC[C@H]23)c1` [Example 4, 7β-[2ʹ-(R)-2ʹ-(m-(Ethylsulfonamido)phenyl)-2ʹ-Aminoace amido)-3-Chloro-3-(1-Carba-1-Dethiacephem)-4-Carboxylic Acid, Zwitterionic Salt], for which the “Minimum Inhibitory Concentration” value (in the data set on Salmonella typhi 1335; with Salmonella typhi X514; in the data set on Shigella sonnei N9; in [1]) was 2 µg/mL throughout. Also, in [2], the “AUC (area under the curve)” value turned out to be 12. This compound displayed a Half-Life in data set [2] of 0.683 h.

Take `CCS(=O)(=O)Nc1cccc(C(N)C(=O)N[C@@H]2C(=O)N3C(C(=O)O)=C(Cl)CC[C@H]23)c1.O=C(O)C(F)(F)F` (stereo partly drawn) [Example 3, 7β-[2ʹ-(R,S)-2ʹ-(m-(Ethylsulfonamido)phenyl)-2ʹ-Aminoaetamido]-3-Chloro-3-(1-Carba-1-Dethiacephem)-4-Carboxyl ic Acid Trifluoroacetate Salt]: in [2], the “AUC (area under the curve)” value is 18 and the Half-Life stood at 0.55 h.

In turn, `CS(=O)(=O)Nc1cccc([C@@H](N)C(=O)N[C@@H]2C(=O)N3C(C(=O)O)=C(Cl)CC[C@H]23)c1` [Example 2, 7β-[2ʹ-(R)-2ʹ-(m-(Methylsulfonamido)phenyl)-2ʹ-Aminoactamido]-3-Chloro-3-(1-Carba-1-Dethiacephem)-4-Carboxyli c Acid, Zwitterionic Salt] registered a Half-Life in [3] (rat, plasma, iv, 20 mg/kg) of 5.28 h.

As to `CS(=O)(=O)Nc1cccc([C@@H](N)C(=O)N[C@@H]2C(=O)N3C(C(=O)O)=C(Cl)CC[C@H]23)c1.O=C(O)C(F)(F)F` [Example 1, 7β-[2ʹ-(R)-2ʹ-(m-(Methylsulfonamido)phenyl)-2ʹ-Aminoactamido]-3-Chloro-3-(1-Carba-1-Dethiacephem)-4-Carboxyli c Acid Trifluoroacetate Salt], the “Minimum Inhibitory Concentration” value in the data set on Escherichia coli TEM amounted to 0.25 µg/mL; in [4], 2 µg/mL; in the data set on Salmonella typhi 1335, 0.5 µg/mL; with Salmonella typhi X514 it was 0.5 µg/mL; in the data set on Shigella sonnei N9, 0.5 µg/mL; in [1], 2 µg/mL. The “Minimum Inhibitory Concentration” value is 4 µg/mL in [5], 4 µg/mL in [6], 2 µg/mL in data set [7] and 1 µg/mL in data set [8]. The Half-Life in data set [3] (rat plasma, 20 mg/kg intravenously, bioassay, model-independent analysis) turned out to be 5.57 h.

On to `CCCS(=O)(=O)Nc1cccc([C@@H](N)C(=O)N[C@@H]2C(=O)N3C(C(=O)O)=C(Cl)CC[C@H]23)c1` [Example 5, 7β-[2ʹ-(R)-2ʹ-(m-(n-Propylsulfonamido)phenyl)-2ʹ-Aminocetamido]-3-Chloro-3-(1-Carba-1-Dethiacephem)-4-Carboxy lic Acid, Zwitterionic Salt.], for which, in data set [2], the “AUC (area under the curve)” value is listed as 20 and the Half-Life is 0.65 h.
